Source: patent US20240374517A1, “LIPIODOL FORMULATION FOR TRANSARTERIAL CHEMOIMMUNOEMBOLIZATION” (Northwestern University, priority 2021, published 2024)

Tested on: HepG2 cells
Experiment: Dox uptake and cytotoxicity in HepG2 cells
Conditions: with (20%) vs without (0%) PF127

`COc1cccc2c1C(=O)c1c(O)c3c(c(O)c1C2=O)C[C@@](O)(C(=O)CO)C[C@@H]3O[C@H]1C[C@H](N)[C@H](O)[C@H](C)O1` [Dox, doxorubicin] was tested, and the “cytotoxicity of Dox” value (CCK-8, 48 hours) was “not affected” and the “cellular uptake of Dox” value (Dox 10 μM, 30 and 60 minutes) was “not affected”.
